Data on ten molecules can be found in ChEMBL document CHEMBL1130880, “Synthesis and in vitro cytotoxicity of C(20)(RS)-camptothecin analogues modified at both B (or A) and E ring” (Bioorg Med Chem Lett, 1998).

Common to all, as to assay type: functional, cell-based
In one assay the test system is A 172. Briefly: Compound was evaluated for in vitro antiproliferative activity against A172 human CNS cancer cell line.
In the next assay the test system is Caov-3 cell line. Kind of assay: Compound was evaluated for in vitro antiproliferative activity against CAOV-3 human ovarian cancer cell line.
For another assay, the system named is DLD-1. Kind of assay: Compound was evaluated for in vitro antiproliferative activity against DLD-1 human colon cancer cell line.
In assay [1] the test system is KATO III stomach cancer cell line. Briefly: Compound was evaluated for in vitro antiproliferative activity against KATO-III human gastric cancer cell line.
In another assay the test system is L1210. Briefly: Compound was evaluated for in vitro antiproliferative activity against L1210 mouse leukemia cell line.

Structures are written as SMILES.

The term IC50 denotes the concentration needed to halve the response being measured.

Turning to `CCOCOCCC1(O)C(=O)OCc2c1cc1n(c2=O)Cc2c-1nc1ccccc1c2CCNC(C)C` (configuration not stated), the IC50 came out at 5460 nM in the assay with A 172; 24 nM in the assay with Caov-3 cell line; 2100 nM with DLD-1; 4210 nM in assay [1]; 14100 nM with L1210.

Turning to `CC(C)NCCc1c2c(nc3ccccc13)-c1cc3c(c(=O)n1C2)COC(=O)C3(O)CCO` (configuration not stated), the IC50 is 3560 nM with A 172; 483 nM with Caov-3 cell line; 619 nM with DLD-1; 4400 nM in assay [1]; 6730 nM in the assay on L1210.

With `O=C1OCc2c(cc3n(c2=O)Cc2c-3nc3cc4c(cc3c2CCl)OCCO4)C1(O)CCO` (configuration not stated), the IC50 with A 172 is 391 nM; in the assay on Caov-3 cell line, 10 nM; in the assay on DLD-1, 55 nM; in assay [1], 135 nM; with L1210, 898 nM.

With `COCOCCC1(O)C(=O)OCc2c1cc1n(c2=O)Cc2cc3ccccc3nc2-1` (configuration not stated), the IC50 turned out to be 2620 nM in the assay on A 172; 560 nM in the assay on Caov-3 cell line; 1860 nM with DLD-1; 320 nM in assay [1]; 440 nM in the assay on L1210.

Turning to `COCOCCC1(O)C(=O)OCc2c1cc1n(c2=O)Cc2c-1nc1ccccc1c2CCNC(C)C` (configuration not stated), the IC50 in the assay on A 172 came to 12200 nM; in the assay with Caov-3 cell line, 91 nM; in the assay on DLD-1, 549 nM; in assay [1] it was 3270 nM.

For `COCOCCC1(O)C(=O)OCc2c1cc1n(c2=O)Cc2c-1nc1cc3c(cc1c2CCl)OCCO3` (configuration not stated), the IC50 with A 172 is 29 nM; with Caov-3 cell line, 3 nM; in the assay on DLD-1, 108 nM; in assay [1], 1460 nM; with L1210, 307 nM.

As for `CCC1(O)C(=O)OCc2c1cc1n(c2=O)Cc2c-1nc1cc3c(cc1c2CCl)OCCO3` (configuration not stated), the IC50 in the assay on A 172 stood at 54 nM; with Caov-3 cell line, 87 nM; with DLD-1, 2780 nM; in assay [1], 6110 nM; in the assay with L1210 it was 14000 nM.

For `CCC1(O)C(=O)OCc2c1cc1n(c2=O)Cc2cc3ccccc3nc2-1` (configuration not stated), the half-maximal inhibitory concentration (IC50) in the assay on A 172 amounted to 29 nM; in the assay with Caov-3 cell line, 32 nM; in the assay on DLD-1 it was 102 nM; in assay [1], 448 nM; with L1210, 35 nM.

Regarding `CCC1(O)C(=O)OCc2c1cc1n(c2=O)Cc2c-1nc1ccccc1c2CCNC(C)C` (configuration not stated), the half-maximal inhibitory concentration (IC50) was 167 nM in the assay on A 172; 4 nM in the assay on Caov-3 cell line; 276 nM in the assay with DLD-1; 623 nM in assay [1]; 460 nM in the assay on L1210.

For the molecule `CCOCOCCC1(O)C(=O)OCc2c1cc1n(c2=O)Cc2c-1nc1cc3c(cc1c2CCl)OCCO3` (configuration not stated), the values for the 50% inhibitory concentration (IC50) (with Caov-3 cell line; in the assay on DLD-1; in assay [1]) were 3760 nM, 3880 nM and 5920 nM, respectively.
